Laboratory results from patent publication US20120165319A1, “INHIBITORS OF INTERLEUKIN-1 BETA CONVERTING ENZYME” (VERTEX PHARMACEUTICALS INCORPORATED, priority 1995, published 2012).
pIC50: −log10 of the molar value.

Tested on: IL-1β, human PBMC
Test: Human PBMC assay (Example 27): IL-1β production
Type: cell-based
Conditions: Homo sapiens, PBMC; Table 22; read-out: Cell PBMC avg. IC50
Method: Since the processing and secretion of biologically active IGIF is mediated by ICE, we compared the activity of a reversible ICE inhibitor (Ac-YVAD-CHO) on IL-1β and IFN-γ production in a peripheral blood mononuclear cell (PBMC) assay (Examples 27).
Human buffy coat cells were obtained from blood donors and peripheral blood mononuclear cells (PBMC) were isolated by centrifugation in LeukoPrep tubes (Becton-Dickinson, Lincoln Park, N.J.). PBMC were added (3×10^6/well) to 24 well Corning tissue culture plates and after 1 hr incubation at 37° C., non-adherent cells were removed by gently washing. Adherent mononuclear cells were stimulated with LPS (1 μg/ml) with or without ICE inhibitor in 2 ml RPMI-1640-10% FBS. After 16-18 hr incubation at 37° C., IGIF and IFN-γ were quantitated in culture supernatants by ELISA.

`O=C[C@H](CC(=O)O)NC(=O)[C@@H]1CCCN2C(=O)CC[C@H](NC(=O)c3nccc4ccccc34)C(=O)N12` [Compound 412, [3S(1S,9S)]3-[6,10-Dioxo-9-(isoquinolin-1-oylamino)-1,2,3,4,7,8,9,10-octahydro-6H-pyridazino[1,2-a][1,2]diazepine-1-carboxamido]-4-oxobutanoic acid] was tested, and the pIC50 was 6.24.
